Source: the supplement of paper PMC10307832

How the values were obtained:
Experiment in all cases: relative viability (nuclei count vs DMSO), 5 days (fraction); higher = more cells survive
[1] = compound: C[C@@H](Oc1cc(-c2cnn(C3CCNCC3)c2)cnc1N)c1c(Cl)ccc(F)c1Cl [Crizotinib] + CCNC(=O)c1noc(-c2cc(C(C)C)c(O)cc2O)c1-c1ccc(CN2CCOCC2)cc1 [Luminespib] (partner 0.01 µM)
Method in brief: (§1)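 Relative viability divides the nuclei count in treated wells by that in vehicle wells. Lung cancer cell lines were seeded in 1536-well plates, dosed by pin tool the next day, and fixed and stained after 5 days in one step with final 0.05% Triton X-100, 1% formaldehyde and 1 ug/ml Hoechst. Dosing was a single drug or a fixed anchor-drug dose plus five library-drug doses (not always all listed) in √10 steps, and values are medians of duplicate plates imaged at 4×.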

[2] = compound: C[C@@H](Oc1cc(-c2cnn(C3CCNCC3)c2)cnc1N)c1c(Cl)ccc(F)c1Cl [Crizotinib] + CS(=O)(=O)CCNCc1ccc(-c2ccc3ncnc(Nc4ccc(OCc5cccc(F)c5)c(Cl)c4)c3c2)o1 [Lapatinib] (partner 2 µM)
Method in brief: as §1

[3] = compound: C[C@@H](Oc1cc(-c2cnn(C3CCNCC3)c2)cnc1N)c1c(Cl)ccc(F)c1Cl [Crizotinib] + Nc1nc2[nH]cc(CCc3ccc(C(=O)N[C@@H](CCC(=O)O)C(=O)O)cc3)c2c(=O)[nH]1 [Pemetrexed] (partner 0.2 µM)
Method in brief: as §1

[4] = compound: C[C@@H](Oc1cc(-c2cnn(C3CCNCC3)c2)cnc1N)c1c(Cl)ccc(F)c1Cl [Crizotinib] + C[C@]1(O)C[C@@H](c2nc(-c3ccc4ccc(-c5ccccc5)nc4c3)c3c(N)nccn32)C1 [Linsitinib] (partner 1 µM)
Method in brief: as §1

| Cell Line | relative viability ([1]; first compound 0.01 µM) | relative viability ([1]; first compound 0.03162 µM) | relative viability ([1]; first compound 0.1 µM) | relative viability ([1]; first compound 0.3162 µM) | relative viability ([1]; first compound 1 µM) | relative viability ([2]; first compound 0.01 µM) | relative viability ([2]; first compound 0.03162 µM) | relative viability ([2]; first compound 0.1 µM) | relative viability ([2]; first compound 0.3162 µM) | relative viability ([2]; first compound 1 µM) | relative viability ([3]; first compound 0.01 µM) | relative viability ([3]; first compound 0.03162 µM) | relative viability ([3]; first compound 0.1 µM) | relative viability ([3]; first compound 0.3162 µM) | relative viability ([3]; first compound 1 µM) | relative viability ([4]; first compound 0.01 µM) | relative viability ([4]; first compound 0.03162 µM) | relative viability ([4]; first compound 0.3162 µM) | relative viability ([4]; first compound 1 µM) | relative viability ([4]; first compound 0.1 µM) |
| --- | --- | --- | --- | --- | --- | --- | --- | --- | --- | --- | --- | --- | --- | --- | --- | --- | --- | --- | --- | --- |
| HCC-827 | 0.542 | 0.651 | 0.784 | 0.52 | 0.646 | 0.153 | 0.211 | 0.178 | 0.175 | 0.18 | 0.268 | 0.183 | 0.267 | 0.274 | 0.261 | 0.927 | 0.931 | 0.946 | 0.958 |  |
| HOP-62 | 0.915 | 0.789 | 0.995 | 0.855 | 0.902 | 0.796 | 1.15 | 1.01 | 0.84 | 1 | 0.347 | 0.266 | 0.331 | 0.28 | 0.31 | 0.81 | 0.946 | 0.956 | 0.816 | 1.1 |
| IA-LM |  |  |  |  |  | 0.861 | 0.954 | 0.738 | 0.822 | 0.641 |  |  |  |  |  | 0.611 | 0.748 | 0.507 | 0.609 | 0.649 |
| LC-2-ad | 0.953 | 0.943 | 1.09 | 0.942 | 0.91 | 0.866 | 0.981 | 1.03 |  | 0.54 | 0.266 | 0.259 | 0.276 |  | 0.302 | 0.872 | 0.879 |  | 0.852 | 0.762 |
| LCLC-97TM1 | 0.723 | 0.796 | 0.67 | 0.714 | 0.799 | 1.08 | 0.927 | 1.04 |  | 1.12 | 0.201 | 0.16 | 0.166 | 0.17 | 0.192 | 0.17 | 0.195 | 0.19 | 0.168 | 0.177 |
| LCLC-103H | 0.856 | 0.987 | 0.856 |  | 1.02 |  |  |  |  |  | 0.493 | 0.47 | 0.447 | 0.461 | 0.444 | 0.985 | 1.07 | 1.15 | 1.3 | 1 |
| LK-2 | 0.173 | 0.188 | 0.188 |  | 0.201 | 0.953 | 0.852 | 0.819 | 0.867 |  | 0.276 | 0.188 | 0.246 | 0.166 | 0.236 | 0.431 | 0.523 | 0.458 | 0.709 | 0.541 |
| LOU-NH91 | 0.351 | 0.311 | 0.346 | 0.34 | 0.345 | 0.738 | 0.731 | 0.677 | 0.57 | 0.712 | 0.35 | 0.368 | 0.383 | 0.396 | 0.383 | 0.902 | 0.916 | 0.991 | 0.939 | 0.963 |
| LU99A | 0.234 | 0.22 | 0.254 | 0.23 | 0.246 | 0.824 | 1.02 | 0.976 | 1.03 | 0.928 | 0.165 | 0.167 | 0.173 | 0.142 | 0.173 | 0.477 | 0.541 | 0.486 | 0.579 | 0.528 |
| LXF-289 | 0.664 | 0.726 | 0.662 | 0.445 | 0.609 | 0.902 | 0.886 | 0.925 | 0.779 | 0.872 | 0.807 | 0.939 | 0.788 | 0.736 |  | 0.91 | 0.972 | 0.906 | 0.937 | 0.983 |
| NCI-H23 | 0.242 | 0.221 | 0.206 | 0.212 | 0.236 | 1.12 | 1.03 | 1.09 |  | 1.18 | 0.489 | 0.591 | 0.567 |  | 0.812 | 0.557 | 0.642 |  | 0.774 | 0.619 |
| NCI-H322M | 0.721 | 0.994 | 0.725 | 1 | 0.964 | 0.478 | 0.642 | 0.616 | 0.584 | 0.701 |  | 0.656 | 0.593 | 0.649 | 0.656 | 0.811 | 0.954 | 0.96 | 0.903 | 1 |
| NCI-H441 | 0.273 | 0.315 | 0.399 |  | 0.391 |  |  |  |  |  | 0.25 | 0.265 | 0.292 | 0.246 | 0.237 | 0.564 | 0.498 | 0.382 | 0.551 | 0.575 |
| NCI-H522 | 1.05 | 1.06 | 1.05 | 1.15 | 1.08 |  |  |  |  |  | 1.04 | 0.968 | 0.828 | 1.04 | 0.999 |  |  |  |  |  |
| NCI-H727 |  | 0.346 | 0.296 |  | 0.509 | 0.837 | 0.749 | 1.15 | 0.729 | 0.888 |  |  |  |  |  | 0.305 | 0.282 | 0.271 | 0.409 | 0.261 |
| NCI-H1299 |  |  |  |  |  | 0.966 | 0.942 | 0.896 | 0.996 | 0.955 |  |  |  |  |  | 0.988 | 0.992 | 0.99 | 0.984 | 1.02 |
| NCI-H1623 |  | 0.469 | 0.502 | 0.486 | 0.5 |  |  |  |  |  |  |  |  |  |  |  |  |  |  |  |
| NCI-H1648 |  |  |  |  |  |  |  |  |  |  |  | 0.703 | 0.568 | 0.81 | 0.675 |  |  |  |  |  |
| NCI-H1650 | 0.165 | 0.193 | 0.202 | 0.18 | 0.206 | 0.699 | 0.819 | 0.828 | 0.363 | 0.799 | 0.308 | 0.403 | 0.334 | 0.37 | 0.408 |  |  |  |  |  |
| NCI-H1703 |  |  |  |  |  | 1.23 | 1.18 | 1.07 | 1.17 | 1.02 |  |  |  |  |  | 0.773 | 0.852 | 0.777 | 0.654 | 0.727 |
| NCI-H2170 | 0.914 | 0.806 | 0.649 | 0.606 | 0.511 | 0.274 | 0.283 | 0.261 | 0.243 | 0.241 | 0.251 | 0.283 | 0.265 | 0.266 | 0.278 |  |  |  |  |  |
| NCI-H2342 | 0.635 | 0.931 | 0.674 | 0.705 | 0.815 |  |  |  |  |  | 0.761 | 0.792 | 0.737 | 0.636 | 0.744 |  |  |  |  |  |
| SW 900 | 0.172 | 0.164 | 0.19 | 0.194 | 0.175 |  |  |  |  |  | 0.505 | 0.437 | 0.493 | 0.476 | 0.466 |  |  |  |  |  |
